The results in this text go back to ChEMBL document CHEMBL1201862, “PubChem BioAssay data set” (2004).

Test [1] is described as follows: MIN6 cell viability loss – mouse insulinoma, cytotoxicity control, dose response (AID 2122).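 Also: confirmatory high-throughput counterscreen run to flag cytotoxic compounds.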 It counts as functional.
Test [2] in a line: decrease of insulin promoter-GFP reporter – imaging, high-content screening, mouse beta cells (AID 1628). The settings on record: MIN6. It counts as functional.
The subject of test [3] is INS1. The experiment in a line: INS-1E survival protection against cytokine death – cell-based, luminescence, retest, dose response (AID 449756).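 Also: cell death triggered by IL-1 beta plus TNF-alpha plus IFN-gamma mixture; protective hits raise ATP signal compared with cytokine alone wells.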 Format: functional. The settings on record: Rattus norvegicus.
Test [4] in a line: viability loss of HPDE-C7K cells – cell-based, fluorescence, HTS, primary screen (AID 431). Format: functional. The settings on record: Homo sapiens.
Test [5] concerns the target Nonstructural protein 1 (Influenza A virus, UniProt Q194T2). Format: functional, Influenza A virus (A/California/07/2009(H1N1)).
The nature of test [6]: viability of HCT116 lacking mutant beta-catenin – cell-based, human colon tumor, dose response (AID 1045).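 Also: HCT116 colon tumor cells with beta catenin knocked out; cells exposed to compound for 60 hours.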 It counts as functional.
Test [7] in a line: HPDE-C7 pancreatic duct cell viability loss – fluorescence, HTS (AID 430). The settings on record: Homo sapiens. Format: functional, cell-based.
The nature of test [8]: viability of PTEN-deleted HCT116 cells – cell-based, HCT116 PTEN knockout, dose response (AID 1047).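 Also: HCT116 colon tumor cells with PTEN knocked out; cells exposed to compound for 60 hours before readout; potency for loss of cell viability measured by luminescence.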 It counts as functional.
Test [9] addresses Epstein-Barr nuclear antigen 1 (Epstein-Barr virus (strain B95-8) (HHV-4) (Human herpesvirus 4), UniProt P03211). The test can be described thus: inhibition of EBV nuclear antigen 1 DNA binding – biochemical, fluorescence polarization, 1536-well, dose response (AID 2381).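 Also: fluorescence polarization of a Cy5 DNA probe bound by EBNA-1 protein.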 Details: species or system human gammaherpesvirus 4.
The target of test [10] is Lytic switch protein BZLF1 (Epstein-Barr virus (strain B95-8) (HHV-4) (Human herpesvirus 4), UniProt P03206). The experiment in a line: inhibition of BZLF1 ZTA DNA binding – biochemical, fluorescence polarization, Epstein-Barr virus, 1536-well, counter-screen for EBNA-1 inhibitor project, dose response (AID 2377).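 Also: fluorescence polarization of Cy5-labelled ZRE DNA probe bound by purified Zta.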 On the set-up: species or system human gammaherpesvirus 4.

For test [11], the target named is Estrogen receptor (Homo sapiens, UniProt P03372).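 Also: potency for inhibiting coactivator peptide recruitment to the receptor.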
Test [12] is described as follows: NIH-3T3 fibroblast cytotoxicity, dose response, cytotoxicity control, cell-based, fluorescence, Alamar Blue, secondary assay (AID 2327).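 Also: NIH-3T3 mouse fibroblasts cultured with fluconazole at 8 µg/mL.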 Format: functional.
Test [13] is described as follows: Luminescence-based counterscreen assay for KLF5 inhibitors: dose response cell-based high throughput screening assay to identify cytotoxic compounds using the IEC-6 intestinal epithelial cell line. [Related pubchem assays: 1700 (Primary screen.), 1834 (Confirmation screen.), 1858 (Summary AID.), 1905 (Counterscreen.)]. Format: functional.
Test [14] relates to Streptococcus sp. 'group A'. The experiment in a line: Streptococcus pyogenes SK(-)GAS viability under kanamycin – luminescence, BacTiterGlo, confirmation, counter-screen for streptokinase expression inhibitor project, dose response (AID 1900). Format: functional, organism-based.
Test [15] addresses Paired box protein Pax-8 (Homo sapiens, UniProt Q06710). The experiment in a line: PAX8 transcriptional activity inhibition in RMG-I – RMG-I cells, luciferase, cherry-pick, dose response (AID 687027).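 Also: luciferase reporter driven by Pax8 target thyroperoxidase promoter measured by SteadyGlo luminescence.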 It counts as functional, cell-based.
Test [16] can be described thus: fluconazole-exposed Candida albicans growth modulators – fluorescence, retest, confirmation (AID 2467). It counts as functional, cell-based.
Test [17] has as its target T1, Serine/threonine-protein phosphatase (Candida dubliniensis (strain CD36 / CBS 7987 / NCPF 3949 / NRRLY-17841) (Yeast), UniProt B9W6M3).
T1 sequence (B9W6M3 whole entry): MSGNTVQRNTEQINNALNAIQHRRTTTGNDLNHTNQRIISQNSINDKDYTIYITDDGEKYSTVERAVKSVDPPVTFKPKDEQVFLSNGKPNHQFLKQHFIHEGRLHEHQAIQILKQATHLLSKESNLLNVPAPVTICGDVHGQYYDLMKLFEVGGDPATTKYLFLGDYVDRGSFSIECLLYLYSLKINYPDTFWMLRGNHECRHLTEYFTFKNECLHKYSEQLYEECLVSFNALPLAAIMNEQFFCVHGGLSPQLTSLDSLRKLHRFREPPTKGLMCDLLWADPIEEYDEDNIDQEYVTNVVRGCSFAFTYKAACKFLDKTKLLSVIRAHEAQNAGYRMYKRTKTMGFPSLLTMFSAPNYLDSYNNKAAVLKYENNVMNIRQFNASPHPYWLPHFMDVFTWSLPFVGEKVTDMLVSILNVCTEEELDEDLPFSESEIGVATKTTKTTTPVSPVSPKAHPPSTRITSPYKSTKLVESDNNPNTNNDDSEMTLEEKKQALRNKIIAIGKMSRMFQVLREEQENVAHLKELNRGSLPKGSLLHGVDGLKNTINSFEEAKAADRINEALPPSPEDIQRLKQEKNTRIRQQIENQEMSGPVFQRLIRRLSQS
The experiment in a line: blockers of CaCl2-induced CDRE-lacZ signaling – S. cerevisiae, luminescence, secondary, dose response (AID 2388).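 Also: yeast reporter cells carrying a calcineurin-responsive lacZ construct stimulated with calcium chloride; luminescent beta-galactosidase reporter signal in whole cells rather than isolated phosphatase activity; potency for inhibition where a drop in reporter signal means calcineurin blockade.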 It counts as functional, cell-based.

For test [18], the system named is Streptococcus. The test can be described thus: GAS UMAA2166 growth inhibition – luminescence, BacTiterGlo, counter-screen for streptokinase expression inhibitor project, dose response (AID 1915).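 Also: potency for reduction of bacterial viability or growth.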 Format: functional, organism-based.
For test [19], the target named is ATP-dependent molecular chaperone HSP82 (Candida albicans (strain WO-1) (Yeast), UniProt C4YTQ8). The test can be described thus: steroid-induced GRE reporter decrease in yeast – S. cerevisiae, luminescence, Hsp90 inhibitor project, dose response (AID 2400).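 Also: beta-galactosidase luminescence from glucocorticoid response element reporter as proxy for Hsp90 function; inhibitor potency where signal loss means Hsp90 inhibition.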 Format: functional, cell-based.
Test [20] addresses Ion channel NompC (Danio rerio, UniProt Q7T1G6). The experiment in a line: Fluorescence counterscreen assay for TRPML3 agonists: dose response cell-based high-throughput screening assay to identify agonists of the transient receptor potential channel N1 (TRPN1). [Related pubchem assays: 1526, 1424, 1448 ]. It counts as functional.
Test [21] deals with T2, Mucolipin-3 (Homo sapiens, UniProt Q8TDD5).
T2 sequence (Q8TDD5 whole entry): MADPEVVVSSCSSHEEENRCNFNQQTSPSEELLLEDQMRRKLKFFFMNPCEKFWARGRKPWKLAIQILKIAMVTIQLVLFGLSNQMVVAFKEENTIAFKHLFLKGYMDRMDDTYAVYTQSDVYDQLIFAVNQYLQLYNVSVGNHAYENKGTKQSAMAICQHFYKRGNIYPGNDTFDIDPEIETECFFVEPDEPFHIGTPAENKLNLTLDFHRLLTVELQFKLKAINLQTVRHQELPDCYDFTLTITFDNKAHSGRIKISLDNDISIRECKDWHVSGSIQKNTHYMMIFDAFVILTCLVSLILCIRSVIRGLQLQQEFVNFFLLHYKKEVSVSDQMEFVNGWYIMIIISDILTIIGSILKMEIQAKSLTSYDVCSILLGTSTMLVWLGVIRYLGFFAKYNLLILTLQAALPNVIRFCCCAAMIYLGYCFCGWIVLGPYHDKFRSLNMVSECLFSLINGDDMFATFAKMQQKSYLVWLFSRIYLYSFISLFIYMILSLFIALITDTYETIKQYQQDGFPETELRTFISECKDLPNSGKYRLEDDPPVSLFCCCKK
The test can be described thus: Dose response cell-based high-throughput screening assay for agonists of the transient receptor potential channel ML3 (TRPML3). [Related pubchem assays: 1526, 1424, 1448 ]. Format: functional.

SMILES strings stand for the structures. The source made the active and inactive calls.

Chain of Nonstructural protein 1 (Q194T2 whole entry): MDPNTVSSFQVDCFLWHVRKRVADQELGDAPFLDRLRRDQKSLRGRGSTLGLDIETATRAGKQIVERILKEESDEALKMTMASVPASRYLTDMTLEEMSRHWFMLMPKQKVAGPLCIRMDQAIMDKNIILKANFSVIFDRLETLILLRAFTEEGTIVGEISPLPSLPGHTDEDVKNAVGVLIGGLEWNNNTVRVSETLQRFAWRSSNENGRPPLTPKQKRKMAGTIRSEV
Chain of Ion channel NompC (Q7T1G6 whole entry): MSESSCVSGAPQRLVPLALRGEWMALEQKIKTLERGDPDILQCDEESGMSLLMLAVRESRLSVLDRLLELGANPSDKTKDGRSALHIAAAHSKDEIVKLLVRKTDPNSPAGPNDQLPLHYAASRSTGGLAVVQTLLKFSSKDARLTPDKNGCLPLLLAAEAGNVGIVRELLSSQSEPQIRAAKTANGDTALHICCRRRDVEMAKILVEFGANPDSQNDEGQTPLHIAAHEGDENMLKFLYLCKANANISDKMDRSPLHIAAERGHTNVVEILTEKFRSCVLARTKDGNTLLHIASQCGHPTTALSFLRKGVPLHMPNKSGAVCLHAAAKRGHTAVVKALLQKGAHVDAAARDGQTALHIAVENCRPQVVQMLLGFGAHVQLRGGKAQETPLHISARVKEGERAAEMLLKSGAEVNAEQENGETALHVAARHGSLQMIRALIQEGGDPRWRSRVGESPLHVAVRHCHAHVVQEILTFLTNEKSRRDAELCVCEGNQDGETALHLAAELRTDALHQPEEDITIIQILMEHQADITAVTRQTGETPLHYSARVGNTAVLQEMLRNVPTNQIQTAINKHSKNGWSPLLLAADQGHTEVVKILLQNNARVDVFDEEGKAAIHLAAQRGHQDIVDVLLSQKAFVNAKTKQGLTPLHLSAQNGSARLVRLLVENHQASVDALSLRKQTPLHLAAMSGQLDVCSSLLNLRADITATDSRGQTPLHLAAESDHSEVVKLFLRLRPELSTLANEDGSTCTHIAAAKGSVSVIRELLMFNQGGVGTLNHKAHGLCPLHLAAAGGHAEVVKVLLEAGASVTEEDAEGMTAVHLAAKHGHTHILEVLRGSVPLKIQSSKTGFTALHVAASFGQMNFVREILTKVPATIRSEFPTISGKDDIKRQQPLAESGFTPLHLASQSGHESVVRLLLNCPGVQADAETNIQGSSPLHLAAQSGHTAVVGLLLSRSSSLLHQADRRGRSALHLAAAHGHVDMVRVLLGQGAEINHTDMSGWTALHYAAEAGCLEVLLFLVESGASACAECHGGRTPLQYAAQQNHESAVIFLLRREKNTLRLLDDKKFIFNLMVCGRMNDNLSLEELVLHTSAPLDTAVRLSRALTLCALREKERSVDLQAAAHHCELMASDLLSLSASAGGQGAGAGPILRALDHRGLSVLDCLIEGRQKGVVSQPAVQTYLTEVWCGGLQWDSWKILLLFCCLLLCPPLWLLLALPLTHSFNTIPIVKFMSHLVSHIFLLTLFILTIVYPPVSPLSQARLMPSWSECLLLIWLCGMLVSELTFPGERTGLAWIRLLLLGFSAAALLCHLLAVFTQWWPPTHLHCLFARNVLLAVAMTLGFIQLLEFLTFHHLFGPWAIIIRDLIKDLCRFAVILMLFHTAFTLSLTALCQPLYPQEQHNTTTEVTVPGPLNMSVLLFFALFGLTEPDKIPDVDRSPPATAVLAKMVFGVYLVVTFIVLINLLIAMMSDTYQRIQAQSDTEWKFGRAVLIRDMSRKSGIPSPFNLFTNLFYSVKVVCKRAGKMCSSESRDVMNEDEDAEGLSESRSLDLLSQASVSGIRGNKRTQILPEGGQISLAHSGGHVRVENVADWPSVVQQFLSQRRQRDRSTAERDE
Chain of ATP-dependent molecular chaperone HSP82 (C4YTQ8 whole entry): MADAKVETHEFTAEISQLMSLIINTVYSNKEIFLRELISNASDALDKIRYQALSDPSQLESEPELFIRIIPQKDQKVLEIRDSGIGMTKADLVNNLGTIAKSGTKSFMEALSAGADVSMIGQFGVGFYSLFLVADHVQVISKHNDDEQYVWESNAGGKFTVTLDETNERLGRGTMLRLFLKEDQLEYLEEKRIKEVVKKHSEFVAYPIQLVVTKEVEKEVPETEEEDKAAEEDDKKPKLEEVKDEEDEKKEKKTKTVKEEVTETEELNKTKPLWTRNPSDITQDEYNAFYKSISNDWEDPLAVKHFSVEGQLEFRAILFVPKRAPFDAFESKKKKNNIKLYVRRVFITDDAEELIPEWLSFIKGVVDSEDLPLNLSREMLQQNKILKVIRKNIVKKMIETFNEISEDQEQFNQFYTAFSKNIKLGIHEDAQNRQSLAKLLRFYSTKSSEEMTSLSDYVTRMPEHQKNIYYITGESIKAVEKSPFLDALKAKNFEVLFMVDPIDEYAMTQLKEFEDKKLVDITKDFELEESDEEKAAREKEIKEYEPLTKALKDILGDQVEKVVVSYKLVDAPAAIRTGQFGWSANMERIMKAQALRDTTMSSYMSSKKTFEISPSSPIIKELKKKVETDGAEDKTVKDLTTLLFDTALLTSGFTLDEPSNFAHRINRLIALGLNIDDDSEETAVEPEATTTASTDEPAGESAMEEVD
Chain of Epstein-Barr nuclear antigen 1 (P03211 whole entry): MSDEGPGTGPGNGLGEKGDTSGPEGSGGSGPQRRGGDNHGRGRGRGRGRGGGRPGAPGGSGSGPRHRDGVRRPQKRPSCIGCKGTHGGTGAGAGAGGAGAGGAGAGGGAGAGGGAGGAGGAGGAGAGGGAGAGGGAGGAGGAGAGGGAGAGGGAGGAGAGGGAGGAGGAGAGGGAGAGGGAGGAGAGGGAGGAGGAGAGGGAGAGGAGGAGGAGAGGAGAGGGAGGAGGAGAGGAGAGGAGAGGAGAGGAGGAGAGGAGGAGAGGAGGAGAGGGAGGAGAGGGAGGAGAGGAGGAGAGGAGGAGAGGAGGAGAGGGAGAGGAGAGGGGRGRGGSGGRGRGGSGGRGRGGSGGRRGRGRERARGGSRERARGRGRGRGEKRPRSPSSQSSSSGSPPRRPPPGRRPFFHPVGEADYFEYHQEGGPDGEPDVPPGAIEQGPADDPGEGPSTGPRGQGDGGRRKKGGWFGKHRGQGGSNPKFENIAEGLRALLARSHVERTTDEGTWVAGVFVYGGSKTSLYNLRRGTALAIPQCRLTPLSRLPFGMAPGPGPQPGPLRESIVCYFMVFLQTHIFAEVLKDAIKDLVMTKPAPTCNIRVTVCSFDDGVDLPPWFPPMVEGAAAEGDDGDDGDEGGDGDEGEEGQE
Chain of Paired box protein Pax-8 (Q06710 whole entry): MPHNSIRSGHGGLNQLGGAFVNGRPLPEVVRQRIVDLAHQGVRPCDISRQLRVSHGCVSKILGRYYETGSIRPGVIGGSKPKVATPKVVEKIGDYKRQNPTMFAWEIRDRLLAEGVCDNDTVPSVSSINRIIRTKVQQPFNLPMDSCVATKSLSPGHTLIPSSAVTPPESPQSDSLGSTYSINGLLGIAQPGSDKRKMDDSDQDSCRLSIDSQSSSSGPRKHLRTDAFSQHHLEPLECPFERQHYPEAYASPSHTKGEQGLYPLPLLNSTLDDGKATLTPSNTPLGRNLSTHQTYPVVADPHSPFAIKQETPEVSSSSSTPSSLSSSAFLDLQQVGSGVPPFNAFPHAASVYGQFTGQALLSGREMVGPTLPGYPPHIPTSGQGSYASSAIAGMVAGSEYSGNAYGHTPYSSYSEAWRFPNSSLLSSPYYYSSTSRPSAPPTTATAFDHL
Chain of Lytic switch protein BZLF1 (P03206 whole entry): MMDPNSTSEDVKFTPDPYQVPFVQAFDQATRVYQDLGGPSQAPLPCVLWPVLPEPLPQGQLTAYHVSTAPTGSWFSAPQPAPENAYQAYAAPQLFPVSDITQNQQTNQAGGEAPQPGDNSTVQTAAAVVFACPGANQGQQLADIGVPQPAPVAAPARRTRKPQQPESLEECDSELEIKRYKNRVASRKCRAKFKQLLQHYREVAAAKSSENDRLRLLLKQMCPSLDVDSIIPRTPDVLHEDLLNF
Chain of Estrogen receptor (P03372 whole entry): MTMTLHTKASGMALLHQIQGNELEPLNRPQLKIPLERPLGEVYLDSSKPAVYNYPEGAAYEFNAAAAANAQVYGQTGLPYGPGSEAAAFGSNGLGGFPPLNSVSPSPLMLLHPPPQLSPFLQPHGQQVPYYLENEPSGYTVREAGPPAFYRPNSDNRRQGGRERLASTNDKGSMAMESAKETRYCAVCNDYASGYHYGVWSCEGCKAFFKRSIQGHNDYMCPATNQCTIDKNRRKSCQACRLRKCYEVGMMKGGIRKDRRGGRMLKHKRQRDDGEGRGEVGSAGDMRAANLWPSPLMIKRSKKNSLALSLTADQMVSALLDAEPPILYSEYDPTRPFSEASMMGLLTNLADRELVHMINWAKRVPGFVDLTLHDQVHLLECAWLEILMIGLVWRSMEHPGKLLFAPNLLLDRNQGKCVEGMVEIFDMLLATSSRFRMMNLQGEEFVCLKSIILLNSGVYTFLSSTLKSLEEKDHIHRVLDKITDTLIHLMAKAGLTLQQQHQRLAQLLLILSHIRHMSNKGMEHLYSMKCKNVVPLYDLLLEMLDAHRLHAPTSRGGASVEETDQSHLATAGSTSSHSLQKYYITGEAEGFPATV

For the compound `CCOC(=O)C(C(C)=O)c1c(Br)c(O)c(O)c2c(C(=O)c3ccc(C)cc3)coc12` (stereo not drawn), the IC50 in [1] was 3.43 µM (active); in test [2] it was 4.26 µM (active); in test [5], > 100 µM (active). Further, the AC50 in test [3] was 3.56 µM (active). The EC50 in [4] is 3.75 µM (active); in test [6], 15.8 µM (active); in test [7], 3.41 µM (active); in test [8], 18.8 µM (active).
Take `CCN(CC)S(=O)(=O)c1ccc(C(=O)Nc2nnc(N=C(S)Nc3ccccc3)s2)cc1`: the IC50 in test [9] was 6.46 µM (active); in [10], > 111 µM (not active).
As to `Cc1cc(NC(=O)CSc2nc3c(c(=O)n2CCc2ccccc2)SC(C)C3)no1` (stereo not drawn), in [11], the IC50 is given as 33.6 µM (not active).
As for `CCN(CC)S(=O)(=O)c1cc(OC)ccc1N=Nc1ccc(O)c2ncccc12`, the EC50 was 96.3 µM (active) in [12]; 1.61 µM (active) in [14]; 0.524 µM (active) in test [16]; > 180 µM (inactive) in [17]; 8.84 µM (active) in test [18]; 13.5 µM (active) in test [19]. Moreover, the AC50 in [3] is 2.41 µM (active); in [15] it was 1.27 µM (active). Further, the IC50 was 15.7 µM (not active) in [13] and 11.7 µM (active) in [5].
For the compound `Cc1ccc(S(=O)(=O)Nc2cc(C(F)(F)F)ccc2N2CCOCC2)c(C)c1`, the values for the EC50 in [20] and in [21] were > 29.9 µM (not active) and 2.48 µM (active), respectively.
